Test results reported in BindingDB's records for doi:10.1016/s0960-894x(02)00385-2 (National Institute of Diabetes and Digestive and Kidney …, 2002).

Molecular target: T1, Mycothiol S-conjugate amidase (Mycobacterium tuberculosis (strain ATCC 25618 / H37Rv), UniProt P9WJN1)
T1 sequence (P9WJN1 whole entry): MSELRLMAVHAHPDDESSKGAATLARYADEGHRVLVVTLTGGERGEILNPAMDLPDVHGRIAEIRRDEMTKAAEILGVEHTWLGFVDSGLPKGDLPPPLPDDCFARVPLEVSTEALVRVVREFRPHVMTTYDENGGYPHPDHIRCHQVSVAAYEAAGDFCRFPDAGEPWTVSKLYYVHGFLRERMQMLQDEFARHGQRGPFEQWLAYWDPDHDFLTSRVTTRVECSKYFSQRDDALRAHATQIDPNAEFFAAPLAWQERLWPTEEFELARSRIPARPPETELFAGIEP
Experiment: ChEBML_140808
From the text: Inhibition of Mycothiol -S-conjugate amidase (MCA) from mycobacterium tuberculosis

SMILES	IC50 [nM]
O=NC(Cc1ccc(O)c(Br)c1)C(=O)NCCSSCCNC(=O)C(Cc1ccc(O)c(Br)c1)N=O (configuration not stated) [3-(3-bromo-4-hydroxy-phenyl)-N-[2-(2-{3-(3-bromo-4-hydroxy-phenyl)-2-[hydroxyimino]-propionylamino}-ethyldisulfanyl)-ethyl]-2-[hydroxyimino]-propionamide]	2800
N=C(N)CCCCNC(=O)C(Cc1cc(Br)c(OCCCN)c(Br)c1)N=O (configuration not stated) [3-[4-(3-Amino-propoxy)-3,5-dibromo-phenyl]-N-(4-carbamimidoyl-butyl)-2-[(E)-hydroxyimino]-propionamide]	2800
